The values below come from patent US11541060B2, “Pharmaceutical compositions for treating pain” (FOREVER CHEER INTERNATIONAL LIMITED, priority 2017, dated 2023).

Test [1] has as its target adenylyl cyclase subtype 8 (AC8) (Homo sapiens, UniProt P40145). The experiment in a line: cAMP assay in AC8 expressing cell line (biochemical screening for AC1 & 8 inhibitors). It is filed as cell-based. Conditions: for inhibition of AC8 activity (in words): 100 μM; for inhibition at 100 µM: read-out: Percent Inhibition AC8.
Test [2] deals with adenylyl cyclase subtype 1 (AC1) (Homo sapiens, UniProt Q08828). The experiment in a line: cAMP assay in AC1 expressing cell line (biochemical screening for AC1 & 8 inhibitors). It is filed as cell-based. Conditions: for inhibition of AC1 activity (in words): 100 μM; for inhibition at 100 µM: read-out: Percent Inhibition AC1. In general terms: Changes in cAMP serve as a functional read-out for many G protein-coupled receptors.
Chain of adenylyl cyclase subtype 1 (AC1) (Q08828 whole entry): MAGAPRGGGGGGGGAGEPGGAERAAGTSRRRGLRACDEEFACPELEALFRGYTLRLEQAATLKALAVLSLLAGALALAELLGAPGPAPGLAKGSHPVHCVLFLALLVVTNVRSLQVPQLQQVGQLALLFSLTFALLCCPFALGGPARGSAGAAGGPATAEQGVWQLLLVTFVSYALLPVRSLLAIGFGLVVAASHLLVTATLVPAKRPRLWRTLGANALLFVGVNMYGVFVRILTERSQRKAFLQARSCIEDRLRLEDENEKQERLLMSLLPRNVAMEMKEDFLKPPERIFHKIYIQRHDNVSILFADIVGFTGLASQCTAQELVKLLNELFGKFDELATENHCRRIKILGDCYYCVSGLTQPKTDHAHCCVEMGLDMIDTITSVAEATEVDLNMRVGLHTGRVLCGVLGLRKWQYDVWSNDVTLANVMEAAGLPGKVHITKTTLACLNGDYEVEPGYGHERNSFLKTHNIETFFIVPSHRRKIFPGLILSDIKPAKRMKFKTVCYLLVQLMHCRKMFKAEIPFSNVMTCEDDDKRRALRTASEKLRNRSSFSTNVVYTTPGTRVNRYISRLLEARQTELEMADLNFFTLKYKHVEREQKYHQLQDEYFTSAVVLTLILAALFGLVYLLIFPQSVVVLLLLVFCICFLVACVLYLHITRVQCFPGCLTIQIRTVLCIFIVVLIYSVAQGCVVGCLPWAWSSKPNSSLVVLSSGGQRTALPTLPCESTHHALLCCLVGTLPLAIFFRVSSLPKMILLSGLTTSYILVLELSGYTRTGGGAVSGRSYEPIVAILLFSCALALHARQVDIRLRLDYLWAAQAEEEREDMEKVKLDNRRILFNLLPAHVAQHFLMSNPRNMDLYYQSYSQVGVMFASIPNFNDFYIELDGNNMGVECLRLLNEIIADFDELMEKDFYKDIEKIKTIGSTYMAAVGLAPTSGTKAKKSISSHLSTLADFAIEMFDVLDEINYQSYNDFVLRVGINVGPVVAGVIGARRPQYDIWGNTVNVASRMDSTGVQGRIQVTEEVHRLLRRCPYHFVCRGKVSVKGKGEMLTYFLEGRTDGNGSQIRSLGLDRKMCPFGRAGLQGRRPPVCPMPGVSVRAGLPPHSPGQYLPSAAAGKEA

A further test has as its system pre-LTP in ACC. The test is described as follows: pre-LTP in ACC cortical slices. It is filed as cell-based, adult mice. The conditions noted are these: 25 μM (SQ22356 'same dose'; NB011 concentration not given), FIG. 1B/FIG. 2.
Test [3] concerns morphine tolerance in mice. The experiment in a line: Morphine tolerance after repeated morphine injections (hotplate, tail-flick). Conditions: mouse, in vivo.
Test [4] relates to morphine-induced place preference in mice. The test is described as follows: Conditioned place preference (CPP) to morphine. It counts as in vivo.
Test [5] has as its system anxiety caused by nerve injury in mice. The experiment in a line: Anxiety behavior test (EPM) after nerve injury. It counts as in vivo. The conditions noted are these: FIG. 6.
Test [6] has as its system behavioral itching (scratching) response in mice. The test is described as follows: Itching response to intradermal compound 48/80. It is filed as in vivo. Conditions: compound 48/80 100 μg/50 μl intradermal, FIG. 7.
The test system of test [7] is post-LTP in ACC. The test is described as follows: post-LTP (ACC LTP) in ACC cortical slices. It is filed as cell-based. Conditions: 25 μM, ACC slices of adult mice, FIG. 1A.
Test [8] has as its system post-LTP in ACC. Conditions: recent report (Chen et al., 2014); cited from earlier work.

“Also recorded” adds a separate entry of the source.

As a reminder, the inhibition is how much of the control response was suppressed.

Chain of adenylyl cyclase subtype 8 (AC8) (P40145 whole entry, species assumed): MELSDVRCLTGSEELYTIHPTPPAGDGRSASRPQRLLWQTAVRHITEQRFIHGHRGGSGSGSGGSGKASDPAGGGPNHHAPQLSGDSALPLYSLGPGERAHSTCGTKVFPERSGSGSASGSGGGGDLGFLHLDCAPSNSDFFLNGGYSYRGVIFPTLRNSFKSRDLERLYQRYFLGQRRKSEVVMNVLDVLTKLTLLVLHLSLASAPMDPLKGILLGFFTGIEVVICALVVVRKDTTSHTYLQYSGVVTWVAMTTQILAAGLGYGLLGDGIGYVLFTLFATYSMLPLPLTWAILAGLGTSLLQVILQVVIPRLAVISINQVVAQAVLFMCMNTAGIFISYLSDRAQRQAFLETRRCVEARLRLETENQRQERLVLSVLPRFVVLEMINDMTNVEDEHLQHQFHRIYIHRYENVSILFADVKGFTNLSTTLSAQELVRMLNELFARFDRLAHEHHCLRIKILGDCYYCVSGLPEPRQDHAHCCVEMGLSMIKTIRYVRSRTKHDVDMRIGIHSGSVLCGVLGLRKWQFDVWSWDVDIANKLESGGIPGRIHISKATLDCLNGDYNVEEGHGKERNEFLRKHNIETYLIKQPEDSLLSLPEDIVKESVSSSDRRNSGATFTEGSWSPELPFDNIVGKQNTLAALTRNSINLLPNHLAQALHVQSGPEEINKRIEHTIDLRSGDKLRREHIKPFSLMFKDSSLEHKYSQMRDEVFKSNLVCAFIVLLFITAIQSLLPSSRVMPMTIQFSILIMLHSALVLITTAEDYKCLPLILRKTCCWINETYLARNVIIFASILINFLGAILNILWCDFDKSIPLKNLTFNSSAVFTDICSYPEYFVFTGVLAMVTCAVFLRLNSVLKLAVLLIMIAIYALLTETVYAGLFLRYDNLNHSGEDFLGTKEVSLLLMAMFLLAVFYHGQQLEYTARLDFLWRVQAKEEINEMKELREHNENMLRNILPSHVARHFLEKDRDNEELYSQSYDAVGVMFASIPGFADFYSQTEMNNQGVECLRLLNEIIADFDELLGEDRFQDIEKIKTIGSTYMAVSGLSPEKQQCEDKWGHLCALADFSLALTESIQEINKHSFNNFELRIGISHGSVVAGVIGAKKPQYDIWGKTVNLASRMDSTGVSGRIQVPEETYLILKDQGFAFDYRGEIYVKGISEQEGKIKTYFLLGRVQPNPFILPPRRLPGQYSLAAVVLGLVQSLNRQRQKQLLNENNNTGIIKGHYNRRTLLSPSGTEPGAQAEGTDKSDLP

As for `c1nc(N2CCOCC2)c2nc[nH]c2n1` [NB011, 4-(9H-purin-6-yl)morpholine], the “inhibition of AC8 activity (in words)” value in [1] was “significant inhibition”. The inhibition at 100 µM in test [1] was 86 ± 2%; in test [2] it was 91 ± 3%. Besides, the “inhibition of AC1 activity (in words)” value in test [2] is listed as “significant inhibition”. Also, in the test with pre-LTP in ACC, the “induction of pre-LTP” value was “inhibit; also recorded: decrease”. Moreover, the “morphine tolerance / morphine analgesic effect” value in [3] is “significant greater analgesic effects; also recorded: reduced”; in [3] (1 mg/kg), “no significant effect”. Further, the morphine-induced place preference result in [4] (dose reduced to 1 mg/kg (not shown in figure)) is given as “expected effect was not produced”. For the same molecule, the “anxiety caused by nerve injury (EPM test)” value (“anxiety caused” below) is listed as “significant reduction; also recorded: reduced anxiety” in test [5] (5 mg/kg, 7 days after injury) and “neither NB010 nor NB011 affected anxiety” in test [5] (low dose 1 mg/kg, 1 mg/kg). In addition, the “total scratching (itching) responses” value in [6] (pretreatment (dose not given)) is recorded as “significantly reduced”.

As to `Nc1ncnc2c1ncn2C1CCCO1` (centres unmarked) [SQ22356, reference compound], the “induction of pre-LTP” value with pre-LTP in ACC is “did not cause a significant decrease”. Further, in [3], the “morphine tolerance / morphine analgesic effect” value is reported as “no significant effect; also recorded: did not produce any significant effect”. For the same molecule, the morphine-induced place preference entry in [4] (5 mg/kg, morphine 10 mg/kg, after 9 days, FIG. 5) is given as “did not produce any inhibition”. Moreover, the “anxiety caused” value in test [5] (5 mg/kg, 7 days after injury) is listed as “Neither GABApentin (100 mg/kg, i.p.) nor SQ22356 (5 mg/kg) significantly reduced; also recorded: no significant effect”. Also, the “total scratching (itching) responses” value in test [6] (5 mg/kg) is listed as “did not show significantly reduction”.

On to `Cc1ccc(OCCn2c(S)nc3c(N)ncnc32)cc1` [NB010], for which the “inhibition of AC8 activity (in words)” value in test [1] is recorded as “significant inhibition”. The results for the inhibition at 100 µM in [1] and in test [2] were 88 ± 2% and 96 ± 4%, respectively. Further, the “inhibition of AC1 activity (in words)” value in [2] was “significant inhibition”. Besides, in the test on post-LTP in ACC [7], the “induction of post-LTP (ACC LTP)” value is listed as “blocked”. For the same molecule, the “induction of pre-LTP” value in the test on pre-LTP in ACC is recorded as “inhibit; also recorded: blocked”. Further, the “morphine tolerance / morphine analgesic effect” value is given as “significant greater analgesic effects; also recorded: reduced” in test [3] and “no significant effect” in test [3] (1 mg/kg). Moreover, the “anxiety caused” value is “significant reduction; also recorded: reduced anxiety” in [5] (5 mg/kg, 7 days after injury) and “did not significantly decrease; also recorded: neither NB010 nor NB011 affected anxiety” in test [5] (low dose 1 mg/kg, 1 mg/kg). Further, the “total scratching (itching) responses” value in test [6] (pretreatment (dose not given)) is on record as “significantly reduced”.

As to `NCC1(CC(=O)O)CCCCC1` [GABApentin, reference compound], the “induction of pre-LTP” value with pre-LTP in ACC was “not blocked”. In addition, in test [3], the “morphine tolerance / morphine analgesic effect” value is “did not produce a significant effect; also recorded: did not produce any significant effect”. The morphine-induced place preference result in [4] (100 mg/kg, morphine 10 mg/kg, after 9 days, FIG. 5) was “did not produce any significant effect”. In addition, the “anxiety caused” value in test [5] (100 mg/kg i.p.) is “Neither GABApentin (100 mg/kg, i.p.) nor SQ22356 (5 mg/kg) significantly reduced; also recorded: no significant effect”. Besides, the “total scratching (itching) responses” value was “neither GABApentin nor SQ22356 produce any significant effect” in test [6] (100 mg/kg) and “did not cause a significant reduction” in test [6] (100 mg/kg, listed as GABApention). For the same molecule, the “effect on ACC LTP” value in the test on post-LTP in ACC [8] is on record as “does not affect”.

For `Nc1ncnc2c1ncn2CCNCCCCCO` [NB001, 5-((2-(6-amino-9H-purin-9-yl)ethyl)amino)pentane-1-ol], the morphine-induced place preference entry in [4] (mouse, in vivo) is “significantly less time; also recorded: significant reduce; also recorded: expected effect was not produced”.
